Data as given in publication PMC9600394, “Efficient Synthesis with Green Chemistry Approach of Novel Pharmacophores of Imidazole-Based Hybrids for Tumor Treatment: Mechanistic Insights from In Situ to In Silico” (Cancers, 2022).
Where two headings read alike, the source gives them in different places.

Legend:
[1] = molecular target: T1, hCA-IX (Homo sapiens, UniProt Q16790); experiment: In vitro inhibition of human CA-IX (p-nitrophenyl acetate, 96-well plate); format: biochemical; details: for Selectivity / specificity for hCA-IX (in words): hCA-IX versus hCA-II; for IC50 / hCA-IX IC50 ± SEM: purified enzyme, substrate p-nitrophenyl acetate, 25 °C, µM from b1; for IC50: unit inferred, read-out: hCA-IX IC50 ± SEM; for hCA-IX IC50 ± SEM: unit not given
[2] = molecular target: T2, hCA-II (Homo sapiens, UniProt P00918); experiment: In vitro inhibition of human CA-II (p-nitrophenyl acetate, 96-well plate); format: biochemical; details: for hCA-II IC50 ± SEM: unit not given; for Inhibitory activity for hCA-II in words: compared to acetazolamide
[3] = molecular target: T1, hCA-IX; experiment: Enzyme kinetic (mechanistic) studies on hCA-IX; format: biochemical; details: for Type of Inhibition (hCA-IX): Lineweaver–Burk / Dixon plots; for Kmapp (hCA-IX): Michaelis–Menten constant in the presence of inhibitors; for Vmaxapp (hCA-IX): maximum velocity of the enzyme in the presence of inhibitors
[4] = MTT assay in normal breast cell line MCF-10A; details: human
Method: (§1) This cell line is ER, PR, and E-cadherin negative, and it lacks the growth factor receptor HER2. […] The normal human breast cell line (MCF-10A) was used as a control in the study. Cells were cultured in DMEM supplemented with 10% FBS and 1% antibiotics (100 U/mL penicillin). […] After 48 h of incubation, 20 μL of MTT solution (5 mg/mL) was pipetted into each well and incubated for another 4 h. The medium was later discarded, and the formazan precipitate was dissolved in DMSO. The absorbance of the mixtures was determined by a microplate reader at 570 nm. All the experiments were performed in triplicate, and the cytotoxicity was expressed as a percentage of cell viability and compared with untreated control cells [33]. % Viability=Absorbance of sample/Absorbance of control×100
(§2) The dose–response and IC50 values were calculated by IBM SPSS Statistics 26 software.
(§3) Simultaneously, the normal human breast epithelial cell line (MCF-10A) was used as a positive control. The MTT [3-(4,5-dimethylthiazol-2-yl)-2,5-diphenyltetrazolium bromide] assay was used to determine the decrease in cancer cell viability induced by the synthesized hybrids.

[5] = test system: MCF-10A; experiment: MTT assay in normal breast cell line MCF-10A; details: for inhibition at 100 µM / IC50: Homo sapiens, MCF-10A, 48 h; for inhibition at 100 µM: read-out: MCF-10A %Inhibition; for IC50: read-out: MCF-10A IC50
Method: as §1, §2, §3

[6] = test system: MDA-MB-231; experiment: MTT assay in breast cancer cell line MDA-MB-231; details: for inhibition at 100 µM: read-out: MDA-MB-231 %Inhibition; for viability at 100 µM: read-out: MDA-MB-231 %Viability
Method: as §1, §2, §3

[7] = molecular target: T2, hCA-II; experiment: Enzyme kinetic (mechanistic) studies on hCA-II; details: for Type of Inhibition (hCA-II): Lineweaver–Burk / Dixon plots; for Vmaxapp (hCA-II): maximum velocity of the enzyme in the presence of inhibitors
Method: In vitro inhibition of human CA (CA-II, and CA-IX) was performed in 96-well plate. Each well of the 96-well plate comprised 20 µL of the test compound (0.5 mM), 20 µL of the purified enzyme (0.1 mg/mL), 140 µL of the assay buffer (HEPES–tris, 20 mM), and 20 µL of the substrate (p-Nitrophenyl acetate; prepared in methanol), making a final volume of 200 µL. The assay procedure started with the incubation of the test compound, desired enzyme, and 140 µL of buffer for 15 min. […] All the in vitro testing results, e.g., percent inhibition, and the IC50 values were analyzed by EZ-Fit, which is a curve-fitting enzyme kinetics program (Perrella Scientific Inc., Amherst, MA, USA). All kinetic graphs were plotted by GraFit program (Horley, UK). Different parameters and their values, such as the values of intercepts, slopes, correlation coefficients, and their standard error means (SEMs), were calculated by the nonlinear regression analysis using the same program (GraFit program).
Certain parameters of the assay were changed in order to determine the mode of inhibition of compounds against specific enzymes.

[8] = purified enzyme, substrate p-nitrophenyl acetate, 25 °C, µM from b1
[9] = Homo sapiens, MDA-MB-231, 48 h, read-out: MDA-MB-231 IC50, 48 h, MTT
[10] = read-out: MDA-MB-231 IC50, 48 h, MTT

SMILES	Selectivity / specificity for hCA-IX (in words) [1]	IC50 [1] [µM]	hCA-II IC50 ± SEM [2, 8]	Ki [3] [µM]	Type of Inhibition (hCA-IX) [3]	Kmapp (hCA-IX) [3]	Vmaxapp (hCA-IX) [3]	melting point	viability at 48 h, 100 µM [4] [%]	inhibition at 100 µM [5] [%]	IC50 [5] [µM]	inhibition at 100 µM ([6]; Homo sapiens, MDA-MB-231, 48 h) [%]	viability at 100 µM ([6]; Homo sapiens, MDA-MB-231, 48 h) [%]	IC50 [6, 9] [µM]	Inhibitory activity for hCA-II in words [2]	IC50 [6, 10] [µM]	IC50 [2] [µM]	other results
Cc1ncc(-c2c(O)n(C)c(=O)n(C)c2=O)n1CCO [Compound 10, 6-hydroxy-5-(1-(2-hydroxyethyl)-2-methyl-1H-imidazol-5-yl)-1,3-dimethylpyrimidine-2,4(1H,3H)-dione]	selective inhibitors of hCA-IX	14.8 ± 0.1	Inactive	13.24 ± 0.03	competitive inhibition	0.40	23.01	163 to 165 °C	84.9	15.1	> 100	75.5	24.5	60.9	–	–	–	–
Cc1ncc(C2=C(O)CCCC2=O)n1CCO [Compound 1, 3-hydroxy-2-(1-(2-hydroxyethyl)-2-methyl-1H-imidazol-5-yl) cyclohex-2-en-1-one]	–	23 ± 0.5	–	–	–	–	–	186 to 190 °C	–	13.2	> 100	51.4	48.6	96	potent inhibitory activity	–	–	Inhibitory activity for hCA-IX in words ([1]; compared to the standard acetazolamide): comparatively weak activity; IC50 ([2]; purified enzyme, substrate p-nitrophenyl acetate, 25 °C, unit inferred, µM from b1, read-out: hCA-II IC50 ± SEM): 11.6 ± 0.2 µM; viability at 48 h, 100 µM ([4]; MCF-10A normal breast epithelial cells): 86.8%; Ki [7]: 9.14 ± 0.08 µM; Type of Inhibition (hCA-II) [7]: competitive inhibition; Vmaxapp (hCA-II) [7]: 19.32
Cc1ncc(-c2c(O)[nH]c(=S)[nH]c2=O)n1CCOC(=O)c1ccccc1 [Compound 7, 2-(5-(6-hydroxy-4-oxo-2-thioxo-1,2,3,4-tetrahydropyrimidin-5-yl)-2-methyl-1H-imidazol-1-yl) ethyl benzoate]	selective inhibitors of hCA-IX	9.6 ± 0.2	Inactive	7.32 ± 0.02	competitive inhibition	–	23.01	225 to 230 °C	86.8	13.2	> 100	69.2	30.8	64	–	64	–	Inhibitory activity for hCA-IX in words [1]: strong inhibitory activity
Cc1ncc(-c2c(O)[nH]c(=O)[nH]c2=O)n1CCOC(=O)c1ccccc1 [Compound 5, 2-(5-(6-hydroxy-2,4-dioxo-1,2,3,4-tetrahydropyrimidin-5-yl)-2-methyl-1H-imidazol-1-yl) ethyl benzoate]	–	–	Inactive	–	–	–	–	–	79.5	20.5	> 100	82.1	17.9	53.6	–	–	–	hCA-IX IC50 ± SEM [1]: Inactive; Toxicity to normal breast cells (MCF-10A) in words ([5]; MTT): no toxicity; Anticancer/cytotoxic activity in MDA-MB-231 in words ([6]; MTT): excellent anticancer/cytotoxic activity
Cc1ncc(-c2c(O)[nH]c(=S)[nH]c2=O)n1CCO [Compound 9, 6-hydroxy-5-(1-(2-hydroxyethyl)-2-methyl-1H-imidazol-5-yl)-2-thioxo-2,3-dihydropyrimidin-4(1H)-one]	–	19.9 ± 0.8	–	17.02 ± 0.02	competitive inhibition	0.47	23.01	–	84.5	13.2	> 100	73.5	26.5	58.6	weak activity	58.6	27.5 ± 1.3	–
Cc1ncc(-c2c(O)n(C)c(=O)n(C)c2=O)n1CCOC(=O)c1ccccc1 [Compound 11, 2-(5-(6-hydroxy-1,3-dimethyl-2,4-dioxo-1,2,3,4-tetrahydropyrimidin-5-yl)-2-methyl-1H-imidazol-1-yl) ethyl benzoate]	selective inhibitors of hCA-IX	11.9 ± 0.3	–	8.32 ± 0.05	competitive inhibition	0.42	23.01	180 to 185 °C	87.9	12.1	> 100	68.2	31.8	63.1	potent inhibitory activity	63.1	15.3 ± 0.3	Ki [7]: 12.58 ± 0.04 µM; Type of Inhibition (hCA-II) [7]: competitive inhibition; Kmapp (hCA-II) ([7]; Michaelis–Menten constant in the presence of inhibitors): 0.14; Vmaxapp (hCA-II) [7]: 19.32
Cc1ncc(-c2c(O)[nH]c(=O)[nH]c2=O)[nH]1 [Compound 3, 6-hydroxy-5-(2-methyl-1H-imidazol-5-yl) pyrimidine-2,4(1H,3H)-dione]	–	10.9 ± 0.8	–	8.01 ± 0.01	competitive inhibition	0.38	23.01	215 °C (dec.)	85.7	14.3	> 100	61.2	38.8	76.1	weak activity	–	30.7 ± 3.4	–
Cc1ncc(-c2c(O)[nH]c(=O)[nH]c2=O)n1CCO [Compound 8, 6-hydroxy-5-(1-(2-hydroxyethyl)-2-methyl-1H-imidazol-5-yl) pyrimidine-2,4 (1H, 3H)-dione]	selective inhibitors of hCA-IX	32.2 ± 1	Inactive	–	–	–	–	–	84.5	15.5	> 100	77.8	22.2	55.6	–	–	–	Inhibitory activity for hCA-IX in words [1]: comparatively weak activity
Cc1ncc(-c2c(O)n(C)c(=O)n(C)c2=O)[nH]1 [Compound 6, 6-hydroxy-1,3-dimethyl-5-(2-methyl-1H-imidazol-5-yl) pyrimidine-2,4(1H,3H)-dione]	–	–	Inactive	–	–	–	–	–	86.8	13.2	> 100	58.4	41.6	79.4	–	–	–	hCA-IX IC50 ± SEM [1]: Inactive
Cc1ncc(-c2c(O)[nH]c(=S)[nH]c2=O)[nH]1 [Compound 4, 6-hydroxy-5-(2-methyl-1H-imidazol-5-yl)-2-thioxo-2,3-dihydropyrimidin-4(1H)-one]	–	17.1 ± 0.6	–	15.02 ± 0.04	competitive inhibition	0.43	23.01	–	82.1	17.9	> 100	60.5	39.5	75.7	weak activity	–	31.1 ± 1.3	–
